In general, IC50 refers to the concentration that inhibits the measured activity by half.

Test [1] has as its target T1, stromelysin (Homo sapiens, UniProt P08254). In words: biochemical.
Description: (§1) The casein was acetylated ^14 C casein prepared by the method of Cawston et al (ibid).
A further test addresses Collagenase. In words: Inhibition of collagenase (acetylated 14C collagen hydrolysis; Cawston and Barrett). It counts as biochemical. Particulars: 37°, 16 hours, pH 7.5, read-out: In vitro inhibitory activity IC50, Collagenase.
The target in the next test is T2, 72 kDa Gelatinase (Homo sapiens, UniProt P08253).
T2 construct: endogenous in cells; host or cells: RPMI-7951 cells
T2 sequence (P08253 110-660): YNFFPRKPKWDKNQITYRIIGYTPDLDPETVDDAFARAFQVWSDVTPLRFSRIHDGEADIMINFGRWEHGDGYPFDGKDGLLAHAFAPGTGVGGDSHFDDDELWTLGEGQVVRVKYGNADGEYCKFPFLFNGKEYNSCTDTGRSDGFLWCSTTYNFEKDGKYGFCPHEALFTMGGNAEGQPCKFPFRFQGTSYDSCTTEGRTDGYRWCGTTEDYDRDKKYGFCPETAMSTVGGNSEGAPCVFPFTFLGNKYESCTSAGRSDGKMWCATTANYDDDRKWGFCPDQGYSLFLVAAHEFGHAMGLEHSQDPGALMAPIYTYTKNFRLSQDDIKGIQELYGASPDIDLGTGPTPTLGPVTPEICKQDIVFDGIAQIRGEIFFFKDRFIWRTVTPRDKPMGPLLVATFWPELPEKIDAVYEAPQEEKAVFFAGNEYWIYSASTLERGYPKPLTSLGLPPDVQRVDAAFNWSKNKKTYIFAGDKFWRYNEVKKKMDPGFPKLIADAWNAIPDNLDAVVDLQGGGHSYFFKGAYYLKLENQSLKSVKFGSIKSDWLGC
Description: Inhibition of 72 kDa gelatinase (14C-radiolabelled gelatin; Sellers et al). It counts as biochemical.

For test [2], the target named is T1, stromelysin. The conditions noted are these: read-out: In vitro inhibitory activity IC50, Stromelsin; 14C acetylated casein, 37°, 16 hours, pH 7.5.
Description: as §1
[3] abbreviates: enzyme from RPMI-7951 cells, 14C gelatin, 37° C., 16 hours, read-out: In vitro inhibitory activity IC50, 72 kDa Gelatinase.

Where two headings read alike, the source gives them in different places.

T1 sequence (P08254 100-477): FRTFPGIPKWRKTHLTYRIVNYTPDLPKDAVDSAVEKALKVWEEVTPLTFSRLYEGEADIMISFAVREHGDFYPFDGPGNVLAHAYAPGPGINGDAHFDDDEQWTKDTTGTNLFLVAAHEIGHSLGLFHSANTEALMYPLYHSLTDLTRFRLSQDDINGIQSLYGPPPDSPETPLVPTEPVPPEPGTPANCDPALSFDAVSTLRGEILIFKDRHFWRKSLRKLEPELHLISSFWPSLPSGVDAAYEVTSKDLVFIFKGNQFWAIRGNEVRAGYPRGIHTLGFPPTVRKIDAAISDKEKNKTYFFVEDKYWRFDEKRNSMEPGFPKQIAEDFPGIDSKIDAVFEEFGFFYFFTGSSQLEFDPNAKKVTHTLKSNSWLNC
Description for Collagenase: The samples were centrifuged to sediment undigested collagen, and an aliquot of the radioactive supernatant removed for assay on a scintillation counter as a measure of hydrolysis.

Turning to `CNC(=O)[C@H](CC(C)C)NC(=O)[C@H](CC(C)C)[C@H](O)C(=O)NO` [Comparator 5, 2S-Hydroxy-3R-(1S-methylcarbamoyl-3-methyl-butylcarbamoyl)-5methylhexanohydroxamic acid, reference compound], the concentration for half-maximal inhibition (IC50) at stromelysin [1] was determined as 0.09 µM; at Collagenase it was 0.008 µM.
Regarding `CC(C)C[C@@H](C(=O)N[C@H](C(=O)Nc1ccccc1)C(C)(C)C)[C@H](O)C(=O)NO` [Example 4, 3R-(2,2-Dimethyl-1S-phenylcarbamoyl-propylcarbamoyl)-2S-hydroxy-5-methylhexanohydroxamic acid], the results for the IC50 on stromelysin [1], at 72 kDa Gelatinase (setting [3]) and on Collagenase were 0.009 µM, 0.005 µM and 0.002 µM, respectively.
As to `CC(C)C[C@H](NC(=O)[C@H](CC(C)C)[C@H](O)C(=O)NO)C(=O)Nc1ccc2ccccc2c1` [Example 5, 2S-Hydroxy-3R-(3-methyl-1S-napth-2-ylcarbamoyl-butylcarbamoyl)-5-methylhexanohydroxamic acid], the IC50 was found to be 0.005 µM against stromelysin [1], 0.006 µM at 72 kDa Gelatinase (setting [3]) and 0.03 µM on Collagenase.
`CC(C)C[C@H](CC(=O)NO)C(=O)N[C@@H](Cc1ccccc1)C(=O)Nc1ccccc1` [Example 1, 5-Methyl-3R-(2-phenyl-1S-phenylcarbamoylethylcarbamoyl)-hexanohydroxamic acid]: the half-maximal inhibitory concentration (IC50) at stromelysin [2] was 0.01 µM; on 72 kDa Gelatinase (setting [3]), 0.06 µM; at Collagenase, 0.02 µM.
On to `CNC(=O)[C@@H](NC(=O)[C@@H](CC(=O)NO)CC(C)C)C(C)(C)C` [Comparator 3, 3R-(2,2-Dimethyl-1S-methylcarbamoyl-propylcarbamoyl)-5-methylhexanohydroxamic acid, reference compound], for which the IC50 is 0.7 µM against stromelysin [1], 0.008 µM at 72 kDa Gelatinase and 0.01 µM at Collagenase.
Turning to `CC(C)C[C@H](CC(=O)NO)C(=O)N[C@H](C(=O)Nc1ccccc1)C(C)(C)C` [Example 2, 3R-(2,2-Dimethyl-1S-phenylcarbamoyl-propylcarbamoyl)-5-methyl-hexanohydroxamic acid], the IC50 against stromelysin [1] was 0.015 µM; on 72 kDa Gelatinase (setting [3]) it was 0.03 µM; on Collagenase, 0.03 µM.
As for `Cc1nc(NC(=O)[C@@H](NC(=O)[C@H](CC(C)C)[C@H](O)C(=O)NO)C(C)(C)C)sc1C` [Example 17, 3R-(2,2-Dimethyl-1S-(4,5-dimethylthiazol-2-ylcarbamoyl)-propylcarbamoyl)-2S-hydroxy-5-methylhexanohydroxamic acid], the 50% inhibitory concentration (IC50) against stromelysin [1] amounted to 0.02 µM; on 72 kDa Gelatinase (setting [3]) it was 0.03 µM; on Collagenase, 0.002 µM.
Consider `CNC(=O)[C@H](Cc1ccccc1)NC(=O)[C@@H](CC(=O)NO)CC(C)C` [Comparator 1, 5-Methyl-3R-(1S-methylcarbamoyl-2-phenylethylcarbamoyl)hexanohydroxamic acid, reference compound], for which, at Collagenase, the IC50 amounted to 0.015 µM.
Take `CNC(=O)[C@H](Cc1ccccc1)NC(=O)[C@H](CC(C)C)[C@H](O)C(=O)NO` [Comparator 4, 2S-Hydroxy-3R-(1S-methylcarbamoyl-2-phenylethylcarbamoyl)-5-methylhexanohydroxamic acid, reference compound]: the IC50 at stromelysin [1] came out at 0.2 µM; on 72 kDa Gelatinase (setting [3]) it was 0.003 µM; on Collagenase, 0.015 µM.
Taken in the same sequence, the figures for `CC(C)C[C@@H](C(=O)N[C@H](C(=O)Nc1ccccn1)C(C)(C)C)[C@H](O)C(=O)NO` [Example 8, 3R-(2,2-Dimethyl-1S-pyridin-2-ylcarbamoyl-propylcarbamoyl)-2S-hydroxy-5-methylhexanohydroxamic acid] were 0.03 µM, 0.015 µM and 0.006 µM.
For `COc1ccc(NC(=O)[C@H](Cc2ccccc2)NC(=O)[C@H](CC(C)C)[C@H](O)C(=O)NO)cc1` [Example 6], in that order: 0.003 µM, 0.008 µM and 0.03 µM.
Taken in the same sequence, the figures for `CC(C)C[C@H](CC(=O)NO)C(=O)N[C@H](C(=O)Nc1ccccn1)C(C)(C)C` [Example 3, 3R-(2,2-Dimethyl-1S-pyridin-2-ylcarbamoyl-propylcarbamoyl)-5-methyl-hexanohydroxamic acid] were 0.15 µM, 0.03 µM and 0.04 µM.

(Values after patent publication US5919940A, “Metalloproteinase inhibitors” (British Biotech Pharmaceuticals Limited, priority 1998, dated 1999).)
